Source: patent US20140088298A9, “CONJUGATES COMPRISING HYDROXYALKYL STARCH AND A CYTOTOXIC AGENT AND PROCESS FOR THEIR PREPARATION” (Fresenius Kabi Deutschland GmbH, priority 2010, published 2014)

Columns and labels:
Assay type in all cases: in vivo, NMRI:nu/nu mice
[1] = Body weight change as sign for toxicity, mouse tumor model MT-3; details: for Toxic deaths (at day): n=8
Method: (§1) Tumor growth inhibition was used as therapeutic parameter. Additionally, body weight change was determined as signs for toxicity (particularly, potential hematological or gastrointestinal side effects).
(§2) Individual body weights of mice were determined twice weekly and mean body weight per group was related to the initial value in percent (body weight change, BWC), see tables in appendix.
(§3) Descriptive statistics was performed on the data of body weight and tumor volume. […] Statistical evaluation was performed with the U-test of Mann and Whitney with a significance level of p<0.05, using the Windows program […] 6.
(§4) Tables 18 to 24 summarize the results for the tested Docetaxel conjugates and the reference compound Taxotere®. […] The loss of body weight is known to be an indicator of gastro-intestinal and hepatotoxicity of the tested compound.

[2] = Body weight change as sign for toxicity, mouse tumor model PC3; details: Table 20, PC3; maximum body weight loss; conjugates 1 x 75 mg/kg day 6; Docetaxel 5 mg/kg days 6-10
Method: as §1
Descriptive statistics was performed on the data of body weight and tumor volume. […] 6.

[3] = Body weight change as sign for toxicity, mouse tumor model A549; details: Table 21, A549; maximum body weight loss; conjugates 1 x 75 mg/kg day 8; Docetaxel 5 mg/kg days 8-12
Method: as §1, §2, §3, §4

SMILES: CC(=O)O[C@H]1C(=O)[C@@]2(C)[C@H]([C@H](OC(=O)c3ccccc3)[C@]3(O)C[C@H](OC(=O)[C@H](O)[C@@H](NC(=O)c4ccccc4)c4ccccc4)C(C)=C1C3(C)C)[C@]1(OC(C)=O)CO[C@@H]1C[C@@H]2O [Paclitaxel]
- Toxic deaths (at day) ([1]; Table 25, MT-3, conjugates 1 x 100 mg/kg day 7, Paclitaxel 12.5 mg/kg days 7-9, 10 mg/kg days 10-11): 1
- Toxic deaths (at day) ([1]; Table 26, MT-3, conjugates 1 x 80 mg/kg day 10, Paclitaxel 10 mg/kg days 10-14): 0

SMILES: CC(=O)O[C@@]12CO[C@@H]1C[C@H](O)[C@@]1(C)C(=O)[C@H](O)C3=C(C)[C@@H](OC(=O)[C@H](O)[C@@H](NC(=O)OC(C)(C)C)c4ccccc4)C[C@@](O)([C@@H](OC(=O)c4ccccc4)[C@H]21)C3(C)C [Taxotere, Docetaxel]
- BWC [%] (at day) [2]: −14%
- Toxic deaths (at day) ([1]; Table 18, MT-3, conjugates 1 x 100 mg/kg i.v. day 7, Docetaxel 10 mg/kg days 7, 9, 11): 4
- Toxic death (at day) ([1]; Table 23, MT-3, conjugates 1 x 75 mg/kg day 7, Docetaxel 5 mg/kg days 7-11): 0
- BWC [%] (at day) [3]: −5%
